We go through 3 compounds from PMC12055641, “The Study of Antistaphylococcal Potential of Omiganan and Retro-Omiganan Under Flow Conditions” (Probiotics and Antimicrobial Proteins, 2024).

Assay [1] concerns human keratinocytes (HaCaT). It is filed as cell-based. Conditions: 24 h. Here is the method:
To evaluate the cytotoxicity of the peptides (IC50), the classic MTT assay on 96-well plates was performed for human keratinocytes (HaCaT) which were acquired from the ATCC. The assay utilizes colorimetric determination of the cell metabolic activity, and the color intensity reflects the number of live cells that can be measured spectrophotometrically. […] DMSO was added to the control cells at a final concentration of 1.0% (v/v), which was related to the maximum concentration of the solvent compounds used in the experiment. After 24 h of incubation at 37 °C (humidified 5% CO2 incubator) with the peptides, a medium containing 1 mg/mL of MTT was added to the wells up to a final concentration of 0.5 mg/mL. Subsequently, the plates were incubated at 37 °C for 4 h. Then, the medium was aspirated, and the formazan product was solubilized with DMSO. The background absorbance at 630 nm was subtracted from that at 570 nm for each well (Epoch, BioTek Instruments, USA). Six replicates were conducted for each concentration. All experiments were repeated at least twice and the resulting IC50 values were calculated with GraFit 7 software (v. 7.0, Erithacus, Berkley, CA, USA).

The test system of assay [2] is S. aureus clinical strain 051N (MRSA) biofilm. Conditions: clinical strain 051N biofilm, 24 h. The source says: (§1) Clinical S. aureus strains were collected from patients with atopic dermatitis during their visits to the Outpatient Clinic and hospitalization in the Department of Dermatology, Venereology and Allergology at Medical University of Gdańsk (following the approval from the ethics committee, Approval Number NKBBN/242–477/2014). Reference strains of S. aureus ATCC 25923, S. aureus ATCC 33591, S. aureus ATCC 9144, and S. aureus ATCC 12598 were obtained from the American Type Culture Collection. All the strains were stored at − 80 °C in Roti®-Store cryo vials (Carl Roth GmbH, Karlsruhe, Germany) and before the tests were transferred into fresh Mueller–Hinton Medium (BioMaxima, Lublin, Poland) and incubated for 24 h at 37 °C. Subsequently, each bacterial inoculum was seeded on Mueller–Hinton agar plates (BioMaxima) and incubated again for 24 h. The cultures prepared in this way were used in further antimicrobial assays. Minimum inhibitory concentrations (MICs) were determined according to the Clinical and Laboratory Standards Institute recommendations. […] The experiments were conducted on 96-well microtiter plates, with a final volume of 100 μL. Additionally, in the case of daptomycin, the medium was supplemented with Ca^2+ (50 mg/L). Cell densities were adjusted spectrophotometrically (Multiskan™ GO Microplate Spectrophotometer, Thermo Scientific) at 600 nm. The MICs were taken as the lowest drug concentration at which a visible growth of the microorganisms was inhibited. Minimum biofilm eliminating concentrations (MBECs) were determined on 96-well flat-bottomed microtiter polystyrene plates with resazurin (7-hydroxy-3H-phenoxazin-3-one 10-oxide sodium salt) as a cell viability reagent. To do this, the plates were filled with 100 μL of the initial inoculums of bacteria (0.5 × 10^7 CFU/mL) in the Mueller–Hinton broth and incubated for 24 h at 37 °C. […] After 24 h of incubation, 20 μL of resazurin (4 mg/mL) was added to each well and the MBEC values were read. Minimum biofilm inhibitory concentrations (MBICs) were also determined on 96-well flat-bottomed microtiter polystyrene plates as described previously. To do this, 50 μL of the compounds in the concentration range, diluted MHB, were prepared. Subsequently, the 50 μL of the staphylococcal inoculums were added to reach the same density of bacteria as that in the MBEC assay. After 24 h of incubation at 37 °C, the wells were rinsed three times with PBS and the fresh medium (100 μL) with resazurin (0.6 mg/mL) was added. Then, after 1 h of incubation, MBICs were read. […] All experiments were conducted in triplicate.

Assay [3] has as its system S. aureus ATCC 33591 (MRSA) biofilm. The settings on record: ATCC 33591, 24 h.
Text: as §1

The subject of assay [4] is S. aureus clinical strain 004N (MRSA) biofilm. The settings on record: clinical strain 004N biofilm, 24 h.
Text: as §1

Assay [5] concerns S. aureus clinical strain 004N (MRSA). Conditions: 24 h.
Text: as §1

Assay [6] concerns biofilm of reference and clinical strains of staphylococci (S. aureus). Conditions: 24 h.
Text: as §1

The test system of assay [7] is S. aureus clinical strain 051N (MRSA). The settings on record: 24 h.
Text: as §1

Assay [8] has as its system S. aureus clinical strain 015N (MRSA). Conditions: 24 h.
Text: as §1

Assay [9] deals with reference and clinical strains of staphylococci (S. aureus). The settings on record: 24 h.
Text: as §1

Assay [10] deals with S. aureus clinical strain 015N (MRSA) biofilm. The settings on record: clinical strain 015N biofilm, 24 h.
Text: as §1

Assay [11] deals with S. aureus clinical strain 043SC (MRSA) biofilm. Conditions: clinical strain 043SC biofilm, 24 h.
Text: as §1

Assay [12] deals with S. aureus clinical strain 043SC (MRSA). Conditions: 24 h.
Text: as §1

Assay [13] concerns S. aureus ATCC 33591 (MRSA). Conditions: ATCC 33591, 24 h.
Text: as §1

Assay [14] deals with S. aureus clinical strain 030N. On the set-up: method as in earlier work. Conditions: clinical isolate 030N, nasal swab; cited from earlier work.
Assay [15] concerns S. aureus clinical strain 031S. The arrangement: method as in earlier work. Conditions: clinical isolate 031S, skin; cited from earlier work.
A further assay deals with S. aureus ATCC 25923. Description: microbe, parasite or virus in culture.
Text: as §1
(§2) Formation of the biofilm inside the PDMS flow chambers was performed using three peristaltic pumps working simultaneously (LP-pump, Kamush, Lipopharm, Poland) and sterile Tygon® 3350 silicone hoses (2.4 × 0.8 × 0.8 mm) with a length of 30 and 50 cm for inlet and outlet, respectively. Bacterial suspensions were prepared (0.5 × 10^7 CFU/mL) in sterile 50-mL test tubes, which were placed in a heating block at 37 °C. Before experiments, all channels were assessed for tightness and sterilized using a 70% 2-propanol solution (10 min, flow rate 1 mL/min) and rinsed with sterile PBS solution (10 min, flow 0.1 mL/min). The formation of biofilm inside the channels was divided into three stages: (1) adhesion—at this stage S. aureus suspensions were passed through the channels for 4 h at a flow rate of 0.1 mL/min; (2) rinsing—the previously used hoses were replaced with new sterile ones, and the channels were rinsed with sterile PBS solution for 10 min at a flow rate of 0.1 mL/min; (3) biofilm growth—after flushing the channels, the silicone hoses were placed in tubes with MHB medium, which was passed through the channels for 24 h at a flow rate of 0.1 mL/min. All experiments included growth and sterility controls.
(§3) This assay was conducted also on the S. aureus ATCC 25923 and S. aureus 33,591 (MRSA) strains.

Assay [16] relates to S. aureus ATCC 33591 (MRSA). Description: microbe, parasite or virus in culture.
Text: as §1, §2, §3

The test system of assay [17] is S. aureus clinical strain 043SC (MRSA). On the set-up: method as in earlier work. Conditions: clinical isolate 043SC (MRSA), skin of patient with furuncle folliculitis; cited from earlier work.
Assay [18] has as its system S. aureus clinical strain 005S. The arrangement: method as in earlier work. The settings on record: clinical isolate 005S, skin; cited from earlier work.
In assay [19] the test system is S. aureus clinical strain 051N (MRSA). On the set-up: method as in earlier work. Conditions: clinical isolate 051N (MRSA), nasal swab; cited from earlier work.
Assay [20] has as its system S. aureus clinical strain 060S. On the set-up: method as in earlier work. Conditions: clinical isolate 060S, skin; cited from earlier work.
The test system of assay [21] is S. aureus clinical strain 009S. The arrangement: method as in earlier work. Conditions: clinical isolate 009S, skin; cited from earlier work.
Assay [22] deals with S. aureus clinical strain 015N (MRSA). The arrangement: method as in earlier work. The settings on record: clinical isolate 015N (MRSA), nasal swab; cited from earlier work.
In assay [23] the test system is S. aureus clinical strain 004N (MRSA). The arrangement: method as in earlier work. The settings on record: clinical isolate 004N (MRSA), nasal swab; cited from earlier work.
Where [24] appears, read: S. aureus 25923 biofilm treated under flow with Retro-Omiganan (half MBEC) for 24 h.
Setting [25] is: S. aureus 25923 biofilm treated under flow with Retro-Omiganan (half MBEC) for 48 h.
The mark [26] stands for this setting: S. aureus 25923 biofilm treated under flow with Retro-Omiganan (half MBEC) for 72 h.
The mark [27] stands for this setting: Staphylococcus aureus, ATCC25923, 0 h.
[28] abbreviates: Staphylococcus aureus, ATCC25923, 24 h.
Setting [29] is: Staphylococcus aureus, ATCC25923, 48 h.
The mark [30] stands for this setting: Staphylococcus aureus, ATCC25923, 72 h.
Where [31] appears, read: S. aureus ATCC 33591 (MRSA) biofilm treated under flow with Retro-Omiganan (half MBEC) for 24 h.
The mark [32] stands for this setting: S. aureus ATCC 33591 (MRSA) biofilm treated under flow with Retro-Omiganan (half MBEC) for 48 h.
Setting [33] is: S. aureus ATCC 33591 (MRSA) biofilm treated under flow with Retro-Omiganan (half MBEC) for 72 h.

In brackets after ≈: the same amount, converted by molar mass. Read-outs that look alike come from different tables or passages of the source. No end group written: not given here.

Usually IC50 stands for the concentration at which inhibition is half-maximal.

Turning to KRRWPWWPWRLI-NH2 [Retro-omiganan AcO^−], the IC50 in assay [1] worked out at 23.66 µg/mL. Moreover, the MBEC in assay [2] is reported as 64 µg/mL; in assay [3], 32 µg/mL; in [4] it was 32 µg/mL; in [10], 32 µg/mL; in assay [11], 32 µg/mL. The MBIC came to 32 µg/mL in assay [2]; 32 µg/mL in assay [3]; 16 µg/mL in assay [4]; 16 µg/mL in assay [10]; 16 µg/mL in assay [11]. In addition, the MIC in [5], in assay [7], in assay [8], in [12] and in assay [13] was 16 µg/mL throughout. The “mean MBEC (initial values)” value in assay [6] amounted to 32.00 µg/mL. Also, the “mean MIC (initial values)” value in [9] is listed as 10.00 µg/mL.
As for `CC(=O)O[C@H]1C[C@@]2(C)[C@@H](C[C@@H](O)[C@H]3[C@@]4(C)CC[C@@H](O)[C@@H](C)[C@@H]4CC[C@@]32C)/C1=C(\CCC=C(C)C)C(=O)O` [Fusidic Acid], the “Antimicrobial susceptibility (MIC)” value is on record as 0.25 µg/mL in assay [14]; 0.25 µg/mL in assay [15]; 0.125 µg/mL in [17]; 0.0625 µg/mL in [18]; 0.125 µg/mL in assay [19]; 0.125 µg/mL in [20]. The “Antimicrobial susceptibility (MIC)” value in assay [21] is listed as 2 µg/mL; in [22], 0.125 µg/mL; in assay [23], 0.0625 µg/mL. In addition, the MIC in the assay with S. aureus ATCC 25923 (setting [24]), with S. aureus ATCC 25923 (setting [25]), against S. aureus ATCC 25923 (setting [26]), against S. aureus ATCC 25923 (setting [27]), against S. aureus ATCC 25923 (setting [28]) and in the assay on S. aureus ATCC 25923 (setting [29]) was not above 0.25 µg/mL in each case. The MIC in the assay on S. aureus ATCC 25923 (setting [30]) was not above 0.25 µg/mL; in assay [16] (setting [31]), not above 0.25 µg/mL; in assay [16] (setting [32]), not above 0.25 µg/mL; in [16] (setting [33]) it was not above 0.25 µg/mL; in assay [16] (Staphylococcus aureus, 0 h), not above 0.25 µg/mL; in assay [16] (Staphylococcus aureus, 24 h), not above 0.25 µg/mL. The MIC in assay [16] (Staphylococcus aureus, 48 h) was not above 0.25 µg/mL; in [16] (Staphylococcus aureus, 72 h) it was not above 0.25 µg/mL.
Turning to `CCC[C@@H]1C[C@@H](C(=O)N[C@@H]([C@H]2O[C@H](SC)[C@H](O)[C@@H](O)[C@H]2O)[C@@H](C)O)N(C)C1` [Lincomycin], the “Antimicrobial susceptibility (MIC)” value is reported as 0.5 µg/mL in assay [14]; 0.5 µg/mL in assay [15]; more than 512 µg/mL in assay [17]; 1 µg/mL in [18]; 1 µg/mL in [19]; 0.5 µg/mL in [20]. The “Antimicrobial susceptibility (MIC)” value in assay [21] is 0.25 µg/mL; in [22] it was 1 µg/mL; in [23], 1 µg/mL. The MIC with S. aureus ATCC 25923 (setting [24]) turned out to be 1.0 µg/mL (≈ 2.46 µM); in the assay on S. aureus ATCC 25923 (setting [25]) it was 1.0 µg/mL (≈ 2.46 µM); in the assay on S. aureus ATCC 25923 (setting [26]), 1.0 µg/mL (≈ 2.46 µM); against S. aureus ATCC 25923 (setting [27]), 1 µg/mL (≈ 2.46 µM); in the assay on S. aureus ATCC 25923 (setting [28]), 1 µg/mL (≈ 2.46 µM); in the assay with S. aureus ATCC 25923 (setting [29]) it was 1 µg/mL (≈ 2.46 µM). The MIC in the assay on S. aureus ATCC 25923 (setting [30]) is 1 µg/mL (≈ 2.46 µM); in assay [16] (setting [31]) it was more than 128 µg/mL; in assay [16] (setting [32]), more than 128 µg/mL; in [16] (setting [33]) it was more than 128 µg/mL; in assay [16] (Staphylococcus aureus, 0 h), more than 128 µg/mL; in assay [16] (Staphylococcus aureus, 24 h), more than 128 µg/mL. In addition, the MIC in assay [16] (Staphylococcus aureus, 48 h) was more than 128 µg/mL; in assay [16] (Staphylococcus aureus, 72 h), more than 128 µg/mL.
